The record followed here is ChEMBL document CHEMBL1201862, “PubChem BioAssay data set” (2004).

What all share (assay): NCI tumour cell line growth inhibition, 48 h
The subject of test [1] is ACHN.
The test system of test [2] is SW-620.
Test [3] relates to OVCAR-3.
Test [4] deals with SF-295.
Test [5] concerns LOX IMVI.
Test [6] has as its system HCC 2998.
Test [7] concerns MDA-MB-435.
Test [8] deals with UACC-257.
The subject of test [9] is SN12C.
Test [10] relates to SR.
Test [11] concerns MDA-N.
Test [12] deals with MDA-MB-231.
The test system of test [13] is NCI-H23.
Test [14] has as its system IGROV-1.
Test [15] relates to COLO 205.
Test [16] relates to M14.
For test [17], the system named is KM12.
Test [18] deals with SK-OV-3.
For test [19], the system named is NCI-H522.
Test [20] relates to HL-60.

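A five-concentration, 48-hour dose response in 96-well plates underlies each endpoint, interpolated linearly between surrounding concentrations. GI50 is the concentration that inhibits growth by half.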 Activity calls are given as the source filed them. Cut-off read from the data, not from the text of the source: active = GI50 up to about 1.1 µM and inactive = higher.

For the molecule `Cc1sc2nc3n(c(=O)c2c1C)N=CN(c1ccc(Cl)cc1)C3`, the GI50 in [1], in test [2], in test [3], in test [4], in [5] and in [6] was > 100 µM (inactive) throughout. In addition, the GI50 in test [7] was > 100 µM (inactive); in [8] it was > 100 µM (inactive); in [9] it was > 100 µM (inactive); in test [10] it was 63.4 µM (inactive); in test [11], > 100 µM (inactive); in [12] it was > 100 µM (inactive). Besides, the GI50 in test [13], in [14], in test [15], in [16], in test [17] and in test [18] was > 100 µM (inactive) in each case. The GI50 in test [19] is 58.7 µM (inactive).

`CC(=O)O[C@@H]1[C@@H](C)[C@]2(CC(c3ccoc3)OC2O)C2CCC3O[C@]3(C)[C@]2(C)[C@@H]1OC(C)=O` (some centres undefined): the GI50 was 38 µM (inactive) in test [1]; 36.4 µM (inactive) in test [2]; 42 µM (inactive) in [3]; 71.6 µM (inactive) in test [4]; 22.3 µM (inactive) in test [5]; 18 µM (inactive) in [20]. Also, the GI50 in test [7] was 43.6 µM (inactive); in test [8], 29.4 µM (inactive); in [9], 39 µM (inactive); in [10], 23.4 µM (inactive); in test [11], 42.1 µM (inactive); in test [12], > 100 µM (inactive). The GI50 in test [13] was 37.4 µM (inactive); in test [14], 41.8 µM (inactive); in test [15] it was 20.3 µM (inactive); in test [16], 82.6 µM (inactive); in [17], 23.8 µM (inactive); in [18], > 100 µM (inactive). Further, the GI50 in [19] was 27.9 µM (inactive).

Regarding `NCCCCc1cc(O)c2c(c1O)C(=O)c1ccccc1C2=O`, the GI50 was 11.2 µM (inactive) in test [1]; 6.53 µM (inactive) in test [2]; 6.75 µM (inactive) in [3]; 14.1 µM (inactive) in test [4]; 7.59 µM (inactive) in test [5]; 12.6 µM (inactive) in test [6]. The GI50 in test [7] was 22.6 µM (inactive); in [8], 17.5 µM (inactive); in test [9], 10.6 µM (inactive); in test [10], 3.18 µM (inactive); in [11] it was 14.9 µM (inactive); in test [12] it was 9.1 µM (inactive). The GI50 was 14.3 µM (inactive) in [13]; 8 µM (inactive) in test [14]; 3.94 µM (inactive) in test [15]; 16.5 µM (inactive) in test [16]; 5.41 µM (inactive) in [17]; 14.9 µM (inactive) in [18]. Besides, the GI50 in test [19] was 10 µM (inactive).

`O=C(Cn1c2ccc(Br)cc2c2nc3ccccc3nc21)NCc1ccccc1`: the GI50 in [1] is 13.4 µM (inactive); in test [2] it was > 100 µM (inactive); in test [3], > 100 µM (inactive); in test [4], 29 µM (inactive); in [5] it was 42.9 µM (inactive); in test [6], > 100 µM (inactive). In addition, the GI50 in test [7] is > 100 µM (inactive); in test [8], > 100 µM (inactive); in test [9], > 100 µM (inactive); in test [10] it was 39.4 µM (inactive); in [11] it was > 100 µM (inactive); in test [12], 35.4 µM (inactive). In addition, the GI50 in test [13] is 37.7 µM (inactive); in test [14] it was 67 µM (inactive); in test [15] it was > 100 µM (inactive); in [16], 89.9 µM (inactive); in test [17], > 100 µM (inactive); in test [18], 44.3 µM (inactive).

On to `COc1ccccc1N1C(=O)CS(=O)(=O)C1c1cccc(Oc2ccccc2)c1` (centres undefined), for which the GI50 in [1] is 19 µM (inactive); in [2], 19.4 µM (inactive); in [3], 18.7 µM (inactive); in test [4] it was 16.7 µM (inactive); in test [5], 17.8 µM (inactive); in test [20], 12.7 µM (inactive). Further, the GI50 in test [7] is 4.26 µM (inactive); in test [8] it was 11.9 µM (inactive); in test [9], 17.1 µM (inactive); in test [10] it was 5.57 µM (inactive); in [11], 4.3 µM (inactive); in test [12] it was 15.5 µM (inactive). In addition, the GI50 in [13] is 16.7 µM (inactive); in [15] it was 16.1 µM (inactive); in test [16], 16.6 µM (inactive); in [17], 15.7 µM (inactive); in test [18], 23.8 µM (inactive); in test [19], 12.6 µM (inactive).

Take `O=C1CC(=O)NC(NN2C(=O)CSC2c2ccc(Cl)cc2)=N1` (centres undefined): the GI50 in test [1], in test [2], in test [3], in test [4], in test [6] and in test [7] was > 100 µM (inactive) each time. The GI50 in [8] was > 100 µM (inactive); in test [9], 18.4 µM (inactive); in test [10], 39.2 µM (inactive); in test [11] it was 54.8 µM (inactive); in test [12], 36.7 µM (inactive); in test [13], 25.5 µM (inactive). Moreover, the GI50 in test [14] is > 100 µM (inactive); in test [15] it was > 100 µM (inactive); in test [16], 55.6 µM (inactive); in [17] it was 32.8 µM (inactive); in [18], > 100 µM (inactive); in test [19], > 100 µM (inactive).

`Cc1nc2nc3c(ncn3COCCO)c(O)n2c1C(c1ccccc1)(c1ccccc1)c1ccccc1`: the GI50 was 18 µM (inactive) in [1]; 19.5 µM (inactive) in [2]; 2.96 µM (inactive) in test [3]; 17.3 µM (inactive) in [4]; 13.1 µM (inactive) in test [5]; 13.6 µM (inactive) in test [6]. Moreover, the GI50 in test [20] was 14.1 µM (inactive); in test [7], 10.9 µM (inactive); in [8], 14.1 µM (inactive); in test [9] it was 16.5 µM (inactive); in test [11] it was 13.5 µM (inactive); in test [12], 14.5 µM (inactive). Moreover, the GI50 was 4.63 µM (inactive) in [13]; 14 µM (inactive) in [14]; 14.6 µM (inactive) in test [15]; 16.3 µM (inactive) in test [16]; 12.2 µM (inactive) in test [17]; 15.9 µM (inactive) in test [18]. For the same molecule, in test [19], the GI50 is 12.6 µM (inactive).

With `COc1cc2c(c(OC)c1OC)-c1cccc(=O)cc1C(NC(C)=O)CC2` (centres undefined), the GI50 is 0.953 µM (active) in [1]; 0.0408 µM (active) in test [2]; 0.0463 µM (active) in test [3]; 0.0792 µM (active) in test [4]; 0.0449 µM (active) in [5]; 0.075 µM (active) in test [6]. In addition, the GI50 in test [20] is 0.0208 µM (active); in test [7], < 0.01 µM (active); in [8], 0.0607 µM (active); in test [9] it was 0.339 µM (active); in test [11], < 0.01 µM (active); in test [12], 0.139 µM (active). For the same molecule, the GI50 in test [13] was 0.0596 µM (active); in test [14], 0.166 µM (active); in test [15], 0.054 µM (active); in [16], 0.0621 µM (active); in test [17], 0.0346 µM (active); in test [18], 0.485 µM (active). Besides, the GI50 in test [19] is 0.0382 µM (active).
